Values joined by “and” are separate entries in the source; they are usually repeats but may differ in a detail not shown here. Equal values may be shown once.
System: HL60 (human promyelocytic leukemia) cells
Experiment: LMA-FlexMAP bead-based gene expression signature analysis of total RNA from HL60 cells treated with tretinoin or DMSO (ninety transcripts); for FlexMap NM 003332 LUA#43: test concentration or dose not given here
Details: replicate columns
[1] = Experiment 2, HL60 cells, Tretinoin-treated

Question: With `CC1=C(/C=C/C(C)=C/C=C/C(C)=C/C(=O)O)C(C)(C)CCC1` [tretinoin, all-trans-retinoic acid] as the compound, how does the “FlexMap NM_003132 LUA#68” value (Experiment 2, Tretinoin) read?
Answer: 635 and 618 and 721 and 690.5 and 680 and 633 and 648 and 716

Question: What about the “FlexMap NM_003172 LUA#19” value (Experiment 2, Tretinoin) of the same compound?
Answer: 333 (2×) and 312.5 and 370 and 365 and 330 and 352 and 380

Question: What about the “FlexMap NM_003332 LUA#43” value (Experiment 2, Tretinoin) of the same compound?
Answer: 2733 and 2691.5 and 2589.5 and 2832 and 2821 and 2704 and 2692 and 2772

Question: What about the “FlexMap NM_003581 LUA#62” value (Experiment 2, Tretinoin) of the same compound?
Answer: 55 (2×) and 54 and 114 and 78 and 85 and 59.5 and 53

Question: What about the “FlexMap NM_003644 LUA#17” value (Experiment 2, Tretinoin) of the same compound?
Answer: 274 (2×) and 259 and 319 and 269 and 192 and 231 and 300

Question: What about the “FlexMap NM_003752 LUA#82” value (Experiment 2, Tretinoin) of the same compound?
Answer: 139 and 142 and 168 and 149.5 and 150 and 153 and 162 and 164

Question: And the “FlexMap NM_003879 LUA#24” value (Experiment 2, Tretinoin)?
Answer: 95 and 96.5 and 93 and 91.5 and 86 and 84 and 82 and 97

Question: What about the “FlexMap NM_004079 LUA#21” value (Experiment 2, Tretinoin) of the same compound?
Answer: 150 and 147 and 144 and 133 and 133.5 and 142 and 143 and 152

Question: What about the “FlexMap NM_004095 LUA#59” value (Experiment 2, Tretinoin) of the same compound?
Answer: 293 (2×) and 227 and 287 and 286.5 and 270 and 294 and 331

Question: What about the “FlexMap NM_004106 LUA#44” value (Experiment 2, Tretinoin) of the same compound?
Answer: 1697 and 1748 and 1762 and 1756 and 1799 and 1678 and 1587.5 and 1827

Question: And the “FlexMap NM_004134 LUA#76” value (Experiment 2, Tretinoin)?
Answer: 406 and 372 and 423.5 and 417 and 415 (2×) and 383 and 426

Question: And the “FlexMap NM_004152 LUA#31” value (Experiment 2, Tretinoin)?
Answer: 2347 and 1882 and 2313 and 2471.5 and 2477.5 and 2269 and 2335.5 and 2470

Question: And the “FlexMap NM_004526 LUA#88” value (Experiment 2, Tretinoin)?
Answer: 256 and 233 and 244 and 270 and 260 and 240.5 and 243 and 277

Question: What about the “FlexMap NM_004602 LUA#32” value (Experiment 2, Tretinoin) of the same compound?
Answer: 303 and 274 and 320 and 337 and 334 and 363 and 355.5 and 296

Question: What about the “FlexMap NM_004723 LUA#20” value (Experiment 2, Tretinoin) of the same compound?
Answer: 501 and 420 and 472.5 and 498 and 506 and 470 and 487.5 and 538

Question: What about the “FlexMap NM_004741 LUA#89” value (Experiment 2, Tretinoin) of the same compound?
Answer: 402.5 and 370.5 and 329 and 324 and 317 and 325 and 328

Question: And the “FlexMap NM_004759 LUA#37” value (Experiment 2, Tretinoin)?
Answer: 206.5 and 235 and 284 and 179 and 207.5 and 192 and 195 and 201

Question: And the “FlexMap NM_005008 LUA#77” value (Experiment 2, Tretinoin)?
Answer: 452.5 (2×) and 393 and 501 and 482 and 432 and 439.5 and 502.5

Question: What about the “FlexMap NM_005375 LUA#86” value (Experiment 2, Tretinoin) of the same compound?
Answer: 565 and 642 and 552 and 568 and 593 and 585 and 589 and 587

Question: And the “FlexMap NM_005566 LUA#85” value (Experiment 2, Tretinoin)?
Answer: 744 and 745 and 851 and 821 and 830 and 748 and 752 and 776.5

Question: What about the “FlexMap NM_005914 LUA#60” value (Experiment 2, Tretinoin) of the same compound?
Answer: 1161.5 and 1104 and 871 and 1091 and 1131 and 1081.5 and 1125 and 1172.5

Question: What about the “FlexMap NM_005915 LUA#72” value (Experiment 2, Tretinoin) of the same compound?
Answer: 47 (4×) and 43 and 44 and 49 and 54

Question: What about the “FlexMap NM_005952 LUA#66” value (Experiment 2, Tretinoin) of the same compound?
Answer: 243 and 261.5 and 265 and 274 and 260 and 263 and 224 and 268

Question: And the “FlexMap NM_005980 LUA#73” value (Experiment 2, Tretinoin)?
Answer: 202 and 190 and 197 and 212 and 204 and 187 and 188 and 209.5

Question: And the “FlexMap NM_006019 LUA#35” value (Experiment 2, Tretinoin)?
Answer: 907 and 1033 and 1059 and 938.5 and 911.5 and 862 and 871 and 956

Question: And the “FlexMap NM_006138 LUA#56” value (Experiment 2, Tretinoin)?
Answer: 124 and 117 and 115.5 and 111 and 127 and 118 and 119.5 and 120

Question: What about the “FlexMap NM_006432 LUA#27” value (Experiment 2, Tretinoin) of the same compound?
Answer: 1693 and 1842 and 1767 and 1718 and 1798 and 1725 and 1678 and 1814

Question: And the “FlexMap NM_006452 LUA#71” value (Experiment 2, Tretinoin)?
Answer: 86 (2×) and 83.5 and 93 and 90 (2×) and 88 and 96

Question: And the “FlexMap NM_006985 LUA#58” value (Experiment 2, Tretinoin)?
Answer: 56 and 50 (2×) and 55 and 52 and 54 and 60 and 63

Question: What about the “FlexMap NM_007282 LUA#16” value (Experiment 2, Tretinoin) of the same compound?
Answer: 58 and 53 and 61 (2×) and 69 and 64 and 59 and 62

Question: What about the “FlexMap NM_014333 LUA#26” value (Experiment 2, Tretinoin) of the same compound?
Answer: 720 (2×) and 704 and 706 and 712 and 662 and 633.5 and 726.5

Question: What about the “FlexMap NM_014366 LUA#61” value (Experiment 2, Tretinoin) of the same compound?
Answer: 298.5 and 321 and 304.5 and 297 and 291 and 286.5 and 300 and 310.5

Question: What about the “FlexMap NM_014573 LUA#70” value (Experiment 2, Tretinoin) of the same compound?
Answer: 178 and 154 and 187 and 179 and 161.5 and 172 and 157.5 and 198

Question: And the “FlexMap NM_015201 LUA#57” value (Experiment 2, Tretinoin)?
Answer: 241 and 245.5 and 266 and 252 and 243 and 230 and 244 and 268.5

Question: What about the “FlexMap NM_018115 LUA#63” value (Experiment 2, Tretinoin) of the same compound?
Answer: 1238 and 1270 and 1440 and 1028 and 1210 and 935.5 and 1175 and 1004

Question: And the “FlexMap NM_018164 LUA#69” value (Experiment 2, Tretinoin)?
Answer: 198 and 200 and 205.5 and 182 (2×) and 188.5 and 186 and 211

Question: What about the “FlexMap NM_018256 LUA#83” value (Experiment 2, Tretinoin) of the same compound?
Answer: 568 and 635.5 and 455 and 571 and 556 and 643 and 655 and 483.5

Question: And the “FlexMap NM_018890 LUA#33” value (Experiment 2, Tretinoin)?
Answer: 934 and 873 and 1071 and 983 and 992 and 923.5 and 879 and 988

Question: What about the “FlexMap NM_019058 LUA#75” value (Experiment 2, Tretinoin) of the same compound?
Answer: 177.5 and 194 (2×) and 192 and 181.5 and 179 and 176 and 171

Question: And the “FlexMap NM_020117 LUA#78” value (Experiment 2, Tretinoin)?
Answer: 697 and 734 (2×) and 750 and 739 and 606 and 654 and 748

Question: What about the “FlexMap NM_021103 LUA#41” value (Experiment 2, Tretinoin) of the same compound?
Answer: 2724 and 2581.5 and 2331.5 and 2558 and 2559 and 793 and 1990 and 2996.5

Question: What about the “FlexMap NM_021203 LUA#80” value (Experiment 2, Tretinoin) of the same compound?
Answer: 657.5 and 657 and 757.5 and 703 and 701.5 and 650 and 660 and 741

Question: And the “FlexMap NM_021974 LUA#64” value (Experiment 2, Tretinoin)?
Answer: 1286.5 and 1160 and 1272 and 1368.5 and 1315 and 1193.5 and 1269 and 1365

Question: What about the “FlexMap NM_024045 LUA#65” value (Experiment 2, Tretinoin) of the same compound?
Answer: 178 and 149 and 163.5 and 164.5 and 175.5 and 158 and 157 and 182

Question: What about the “FlexMap TFRC LUA#92” value (Experiment 2, Tretinoin) of the same compound?
Answer: 346 and 400.5 and 413 and 375 and 381 and 358 and 345.5 and 382

Question: And the “FlexMap signal, transcript NM_000070 (LUA#2)” value [1]?
Answer: 437.5 and 358 and 444 (2×) and 393 (2×) and 419 and 422

Question: What about the “FlexMap signal, transcript NM_000153 (LUA#10)” value [1] of the same compound?
Answer: 487 and 484 and 539 and 511 and 505 and 473 and 501 and 542

Question: And the “FlexMap signal, transcript NM_000632 (LUA#12)” value [1]?
Answer: 369.5 and 476 and 491.5 and 406 and 400 and 360.5 and 374 and 395

From patent publication US20110015080A1, “Solution-based methods for RNA expression profiling” (MASSACHUSETTS INSTITUTE OF TECHNOLOGY, priority 2005, published 2011)
